{"source": "PubChem BioAssay AID652006", "about": "(Sanford-Burnham Center for Chemical Genomics, 2013)", "target": "Tyrosine-protein phosphatase non-receptor type 22 (Homo sapiens) (UniProt Q9Y2R2)", "sequence (Q9Y2R2 whole entry, looked up, the tested form may be a part)": "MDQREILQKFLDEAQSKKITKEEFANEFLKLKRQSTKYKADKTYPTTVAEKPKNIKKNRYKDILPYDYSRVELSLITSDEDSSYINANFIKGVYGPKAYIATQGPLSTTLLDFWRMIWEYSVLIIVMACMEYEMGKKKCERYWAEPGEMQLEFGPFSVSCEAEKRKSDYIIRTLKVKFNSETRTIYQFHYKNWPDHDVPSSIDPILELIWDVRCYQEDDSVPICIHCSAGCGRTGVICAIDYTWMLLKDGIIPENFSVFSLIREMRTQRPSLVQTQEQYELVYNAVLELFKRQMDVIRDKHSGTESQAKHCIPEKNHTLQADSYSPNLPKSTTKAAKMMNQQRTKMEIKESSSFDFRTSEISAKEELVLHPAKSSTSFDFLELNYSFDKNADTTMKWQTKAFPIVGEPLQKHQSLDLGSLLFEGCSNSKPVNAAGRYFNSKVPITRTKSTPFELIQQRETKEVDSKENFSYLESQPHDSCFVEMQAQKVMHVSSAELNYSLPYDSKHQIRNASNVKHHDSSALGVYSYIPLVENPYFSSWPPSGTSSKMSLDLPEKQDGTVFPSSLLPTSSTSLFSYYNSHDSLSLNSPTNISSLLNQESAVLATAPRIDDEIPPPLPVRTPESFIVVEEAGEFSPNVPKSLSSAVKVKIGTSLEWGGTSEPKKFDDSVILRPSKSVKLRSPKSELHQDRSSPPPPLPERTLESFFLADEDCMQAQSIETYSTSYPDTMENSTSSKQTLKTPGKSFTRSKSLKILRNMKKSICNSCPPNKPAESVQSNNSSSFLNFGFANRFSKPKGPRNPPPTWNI", "assay": "PTPN22 enzyme inhibitors – biochemical, fluorescence, LYP catalytic domain, selectivity assay for LMPTP inhibitor project, dose response (AID 652006)", "conditions": "His-LYP catalytic domain, OMFP fluorescence, 50 min", "note": "Active and inactive are the calls of the source.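 The calls were made as follows: active = compounds that inhibit the LYP-1 phosphatase with IC50 at or below 20 µM; inactive = the rest.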"}
{"smiles": "Clc1cccc(Cl)c1Cn1cnc(=NCc2ccco2)c2[nH]cnc21", "values": [{"measurement": "IC50", "value": "> 80 µM (inactive)"}]}
